Assay results reported in patent US8912194B2, “CDK inhibitor for the treatment of mesothelioma” (Nerviano Medical Sciences S.R.L., priority 2008, dated 2014).

Legend:
[1] = molecular target: Thropomyosin Receptor Kinase A (TRKA) (Homo sapiens, UniProt P04629); test: Scintillation Proximity Assay (SPA) for kinases; type: biochemical; conditions: read-out: IC50 (printed 1050) towards TRKA
Procedure: This assay allows measurement of the inhibition of the kinase activity of a specific enzyme obtained with test compound. Different kinases can be tested in parallel.
A biotinylated substrate is trans-phosphorylated by a specific kinase in the presence of ATP including a γ33-ATP tracer. At the end of the reaction the phosphorylated substrate is then captured using Streptavidin-coated SPA beads. A dense 5M CsCl solution is added and the mixture is incubated for four hours. This causes the SPA beads to float to the top of the CsCl solution containing the unincorporated radiolabelled ATP.
The extent of phosphorylation is measured using a β-counter.

[2] = tested on: MSTO-211H mesothelioma cell line; test: Inhibition of cell proliferation (cellular ATP monitoring); type: cell-based; conditions: Homo sapiens, 72 hours after treatment
Procedure: (§1) MSTO-211H, NCI-H2052 and NCI-H28 mesothelioma cell lines were cultured in RPMI 1640 added with 10% FCS, 2 mM glutamine, 1 mM sodium pyruvate and 10 mM HEPES. For all the experiments cells were seeded at the density of 1×10^4/cm^2, the day after treatment with the compound for the prescribed duration and then collected at the reported times.
(§2) Cells were washed and counted 72 hours after the treatment. Cell proliferation was determined by a cellular adenosine triphosphate monitoring system. Cell proliferation was compared to control cells. The concentration inhibiting cell proliferation by 50% (IC50) was calculated.

[3] = tested on: NCI-H2052 mesothelioma cell line; test: as above; type: cell-based; conditions: Homo sapiens; NCI-H2052, 72 hours after treatment
Procedure: as §1, §2

[4] = tested on: NCI-H28 mesothelioma cell line; test: as above; type: cell-based; conditions: Homo sapiens; NCI-H28, 72 hours after treatment
Procedure: as §1, §2

[5] = tested on: MSTO-211H mesothelioma cell line; test: Analysis of cell cycle progression and apoptosis induction (cytofluorimetry, propidium iodide); type: cell-based
Procedure: (§3) MSTO-211H, NCI-H2052 and NCI-H28 mesothelioma cell lines were cultured in RPMI 1640 added with 10% FCS, 2 mM glutamine, 1 mM sodium pyruvate and 10 mM HEPES. For all the experiments cells were seeded at the density of 1×10^4/cm^2, the day after treatment with the compound for the prescribed duration and then collected at the reported times. Cells were washed 24 hours after the treatment, fixed with cold methanol 70% and stored at −20° C. Fixed cells were washed with PBS to remove methanol and were stained with 25 μg/mL of propidium iodide, 5 μg/mL of RNase, and 0.125 μg/mL of Nonidet P 40. Cells were kept at room temperature for 60 minutes in the dark and were analyzed by BD FACSCalibur™ system interfaced to a Macintosh G4 computer with BD CellQuest™ 3.3 software. All doublets or aggregates were removed during analysis by an appropriate gate on an FL3-A/FL3-W dot plot and DNA content analysis was performed in ≧10,000 gated cells. DNA histograms (shown in FIG. 1) were analyzed using ModFit LT™

[6] = tested on: NCI-H2052 mesothelioma cell line; test: as above; type: cell-based; conditions: NCI-H2052, 24 hours after treatment, cytofluorimetric analysis
Procedure: as §3

[7] = tested on: NCI-H28 mesothelioma cell line; test: as above; type: cell-based; conditions: NCI-H28, 24 hours after treatment, cytofluorimetric analysis
Procedure: as §3

[8] = tested on: mesothelioma cells (MSTO-211H, NCI-H2052, NCI-H28); test: Inhibition of cell proliferation, summary over all tested mesothelioma cells; type: cell-based; conditions: all the tested mesothelioma cells, 72 hours; read-out: IC50 range, inhibition of proliferation
Procedure: as §1, §2

[9] = tested on: Rb phosphorylation, cyclin A and cdc6 expression in NCI-H28 cells; test: Western blot analysis of cell cycle related markers; type: cell-based; conditions: 1 and 3 μM, 24 hours, FIG. 2
Procedure: (§4) Treated cells were lysed by adding SDS sample buffer (0.125M Tris-HCl pH6.8, 5% SDS). Samples were heated to 95° C. for 5 minutes and then sonicated using an Ultrasonic 2000 ARTEK. Lysed cells were centrifuged at 13,000 RPM for 10 minutes. Protein quantification was determined using BCA buffer (Pierce) and a BSA standard curve. 20 μg protein extract per well were loaded and separated by SDS-PAGE gel 7.5-10% (PAGE-PLUS 40% concentrate AMRESCO). The gel was blotted onto nitrocellulose filters (Hybond Amersham) in a buffer containing 25 mM Tris HCl pH 8.3, 192 mM Glycine and 20% methanol. The filters were saturated in 5% low-fat milk in TBS containing 0.1% Tween 20 (TBS-T) for 2 hours at room temperature and than incubated overnight at 4° C. with the primary monoclonal followed by washes in TBS-T and incubation using a secondary anti mouse antibody. The bands were visualized using the “Super Signal West Pico” Pierce.

[10] = tested on: phosphorylation of AKT, S6 and MAPK in NCI-H28 cells; test: Western blot analysis of tyrosine kinase growth factor receptor mediated pathways; type: cell-based; conditions: 1 and 3 μM, FIG. 2
Procedure: as §4

[11] = tested on: cell cycle related markers in mesothelioma cell lines; test: Western blot analysis of cell cycle related markers, all cell lines; type: cell-based; conditions: all mesothelioma cell lines tested
Procedure: as §4

mesothelioma = conditions: single agent, mesothelioma patients; cited from earlier work

Thropomyosin Receptor Kinase A (TRKA), sequence (P04629 33-796): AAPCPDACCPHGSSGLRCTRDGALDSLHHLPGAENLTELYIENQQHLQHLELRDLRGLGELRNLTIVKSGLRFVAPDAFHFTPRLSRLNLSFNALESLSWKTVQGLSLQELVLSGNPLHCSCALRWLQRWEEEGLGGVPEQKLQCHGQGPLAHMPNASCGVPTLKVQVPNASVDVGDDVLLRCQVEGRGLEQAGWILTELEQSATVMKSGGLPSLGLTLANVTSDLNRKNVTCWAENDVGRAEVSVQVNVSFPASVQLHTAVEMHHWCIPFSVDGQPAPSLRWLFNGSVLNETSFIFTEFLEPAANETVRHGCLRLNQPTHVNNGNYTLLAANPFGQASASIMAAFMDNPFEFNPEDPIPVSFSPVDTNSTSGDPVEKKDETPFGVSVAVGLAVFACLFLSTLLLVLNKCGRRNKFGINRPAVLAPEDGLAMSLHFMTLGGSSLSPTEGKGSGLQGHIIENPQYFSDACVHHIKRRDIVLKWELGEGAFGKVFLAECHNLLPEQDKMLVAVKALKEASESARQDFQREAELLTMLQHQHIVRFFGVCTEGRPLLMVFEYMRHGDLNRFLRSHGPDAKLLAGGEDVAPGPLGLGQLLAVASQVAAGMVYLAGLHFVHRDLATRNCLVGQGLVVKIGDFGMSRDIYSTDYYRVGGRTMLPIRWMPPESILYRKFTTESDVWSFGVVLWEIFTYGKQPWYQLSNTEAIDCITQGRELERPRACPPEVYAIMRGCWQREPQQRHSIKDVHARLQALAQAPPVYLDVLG

Molecule `CNC(=O)c1nn(C)c2c1C(C)(C)Cc1cnc(Nc3ccc(N4CCN(C)CC4)cc3)nc1-2` [compound of formula (I), 8-[4-(4-methyl-piperazin-1-yl)-phenylamino]-1,4,4-trimethyl-4,5-dihydro-1H-pyrazolo[4,3-h]quinazoline-3-carboxylic acid methylamide] has an IC50 [1] of 53 nM, an IC50 [2] of 0.23 ± 0.1 µM and an IC50 [3] of 0.74 ± 0.37 µM. For the same molecule, the IC50 [4] was 1.56 ± 0.52 µM, the “Effect on cell cycle progression” value ([5]; 1 μM, 24 hours, FIG. 1) was “G1 block” and the “Sub G1 peak (induction of apoptosis)” value ([5]; 3 μM, 24 hours, FIG. 1) was “increase of the sub G1 peak”. For the same molecule, the “Sub G1 % (percentage of cells with a sub G1 DNA content, apoptosis)” value ([5]; 24 hours after treatment, cytofluorimetric analysis) was 24%, the “Sub G1 % (percentage of cells with a sub G1 DNA content, apoptosis)” value [6] was 14% and the “Sub G1 % (percentage of cells with a sub G1 DNA content, apoptosis)” value [7] was 5%. For the same molecule, the IC50 [8] was 230 to 1560 nM, the Rb phosphorylation ([9]; NCI-H28 cells (mutated in p16/CDKN2A)) was “strong inhibition” and the cdc6 expression ([9]; NCI-H28 cells) was “strong inhibition”. The “cyclin A expression” value ([9]; NCI-H28 cells) was “strong inhibition”, the “phosphorylation of AKT” value [10] was “Inhibition in phosphorylation” and the “phosphorylation of MAPK” value [10] was “Inhibition in phosphorylation”. The “phosphorylation of S6” value [10] was “Inhibition in phosphorylation” and the “cell cycle related markers” value [11] was “decrease”.
In the case of `Nc1nc2[nH]cc(CCc3ccc(C(=O)N[C@@H](CCC(=O)O)C(=O)O)cc3)c2c(=O)[nH]1` [pemetrexed], the median overall survival (mesothelioma) is given as 10.7 months and the response rate (mesothelioma) is given as 14.1%.
